Key:
PD-L1 = PD-L1 (Homo sapiens (Human), UniProt Q9NZQ7); assay: PD-L1 whole blood internalization assay; format: cell-based; settings: 24 HR, PD-L1 expression on CD14+ cells, human interferon γ
[1] = biological target: PD-1/PD-L1 protein/protein interaction (recombinant human PD-L1 and human PD-1) (Homo sapiens (Human), UniProt Q9NZQ7); assay: Homogeneous Time-Resolved Fluorescence (HTRF) PD-1/PD-L1 binding assay
Procedure, shortened: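 Human PD-L1 (19-238, C-His; 10 nM final) and PD-1 (25-167, C-Fc; 3 nM final) preincubated 40 min with inhibitor in PBS pH 7.4, 0.05% Tween-20, 0.1% BSA, 1% DMSO, 25 °C. Eu-anti-human IgG (1 nM) and anti-His-APC (20 nM) added for 60 min; 665/620 nm ratio; IC50 from percent-control curves.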

[2] = system: U2OS/PD-L1 cells and Jurkat-PD-1-SHP cells; assay: Src homology region 2 domain-containing phosphatase (SHP) assay; format: cell-based; settings: Homo sapiens, U2OS
Procedure, shortened: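 U2OS/PD-L1 and Jurkat-PD-1-SHP cells (5000 each per well) were co-incubated with compound for 2 h at 37 °C in RPMI1640 with 1% FBS, 0.05% DMSO final. PathHunter chemiluminescence was read after 1 h at room temperature, and IC50 was fitted from percent of DMSO-control activity.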

[3] = system: PD-L1 aAPC/CHO-K1 cells and Jurkat-PD-1-NFAT effector cells; assay: Nuclear factor of activated T-cells (NFAT) assay; format: cell-based; settings: Cricetulus griseus, CHO-K1
Procedure, shortened: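 CHO-K1 cells expressing PD-L1 aAPC were co-cultured with Jurkat-PD-1-NFAT effector cells in RPMI 1640 with 1% FBS and compound (0.4% DMSO; top concentration 2 μM) for 24 h at 37 °C. Bio-Glo luminescence was read, fold induction normalised to DMSO wells, and EC50 fitted from percent of control compound activity.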

PD-L1, sequence (Q9NZQ7 19-290): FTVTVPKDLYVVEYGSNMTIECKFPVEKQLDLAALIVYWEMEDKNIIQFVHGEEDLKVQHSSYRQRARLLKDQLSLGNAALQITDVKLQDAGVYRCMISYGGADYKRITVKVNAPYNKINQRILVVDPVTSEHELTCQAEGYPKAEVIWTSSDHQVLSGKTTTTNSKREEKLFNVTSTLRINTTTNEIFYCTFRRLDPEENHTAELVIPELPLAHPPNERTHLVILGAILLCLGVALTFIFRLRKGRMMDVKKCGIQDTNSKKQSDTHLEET
PD-1/PD-L1 protein/protein interaction (recombinant human PD-L1 and human PD-1), sequence (Q9NZQ7 19-238): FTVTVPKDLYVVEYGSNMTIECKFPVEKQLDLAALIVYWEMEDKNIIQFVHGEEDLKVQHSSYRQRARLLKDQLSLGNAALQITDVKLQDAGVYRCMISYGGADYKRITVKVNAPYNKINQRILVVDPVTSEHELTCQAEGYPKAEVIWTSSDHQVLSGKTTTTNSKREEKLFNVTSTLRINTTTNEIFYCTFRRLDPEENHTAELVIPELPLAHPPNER

IC50 (PD-L1) [nM]	IC50 [1] [nM]	IC50 [2] [nM]	SMILES	EC50 [3] [nM]
100 to 500	≤ 5	10 to 100	Cc1c(NC(=O)c2nc3c(n2C)CCN(CC24CCC(C(=O)O)(CC2)C4)C3)cccc1-c1cccc(NC(=O)c2nc3c(n2C)CCN(CCC24CCC(C(=O)O)(CC2)C4)C3)c1Cl [Example 35, 4-((2-((3′-(5-(2-(4-carboxybicyclo[2.2.1]heptan-1-yl)ethyl)-1-methyl-4,5,6,7-tetrahydro-1H-imidazo[4,5-c]pyridine-2-carboxamido)-2′-chloro-2-methyl-[1,1′-biphenyl]-3-yl)carbamoyl)-1-methyl-1,4,6,7-tetrahydro-5H-imidazo[4,5-c]pyridin-5-yl)methyl)bicyclo[2.2.1]heptane-1-carboxylic acid]	100 to 500
10 to 100	≤ 5	≤ 10	Cc1c(NC(=O)c2nc3c(n2C)CCN(CCc2ccc(C(=O)O)cc2)C3)cccc1-c1cccc(NC(=O)c2nc3c(n2C)CCN(CCC24CCC(C(=O)O)(CC2)C4)C3)c1Cl [Example 36, 4-(2-(2-((3′-(5-(4-carboxyphenethyl)-1-methyl-4,5,6,7-tetrahydro-1H-imidazo[4,5-c]pyridine-2-carboxamido)-2-chloro-2′-methyl-[1,1′-biphenyl]-3-yl)carbamoyl)-1-methyl-1,4,6,7-tetrahydro-5H-imidazo[4,5-c]pyridin-5-yl)ethyl)bicyclo[2.2.1]heptane-1-carboxylic acid]	10 to 100
10 to 100	≤ 5	≤ 10	Cc1c(NC(=O)c2nc3c(n2C)CCN(CCC24CCC(C(=O)O)(CC2)C4)C3)cccc1-c1cccc(NC(=O)c2nc3c(n2C)CCNC3)c1Cl [Example 37, 4-(2-(2-((2′-chloro-2-methyl-3′-(1-methyl-4,5,6,7-tetrahydro-1H-imidazo[4,5-c]pyridine-2-carboxamido)-[1,1′-biphenyl]-3-yl)carbamoyl)-1-methyl-1,4,6,7-tetrahydro-5H-imidazo[4,5-c]pyridin-5-yl)ethyl)bicyclo[2.2.1]heptane-1-carboxylic Acid]	10 to 100
10 to 100	≤ 5	≤ 10	Cc1c(NC(=O)c2nc3c(n2C)CCN(CCC24CCC(C(=O)O)(CC2)C4)C3)cccc1-c1cccc(NC(=O)c2nc3c(n2C)CCN(C2CCOCC2)C3)c1Cl [Example 38, 4-(2-(2-((2′-chloro-2-methyl-3′-(1-methyl-5-(tetrahydro-2H-pyran-4-yl)-4,5,6,7-tetrahydro-1H-imidazo[4,5-c]pyridine-2-carboxamido)-[1,1′-biphenyl]-3-yl)carbamoyl)-1-methyl-1,4,6,7-tetrahydro-5H-imidazo[4,5-c]pyridin-5-yl)ethyl)bicyclo[2.2.1]heptane-1-carboxylic acid]	10 to 100
10 to 100	≤ 5	≤ 10	Cc1c(NC(=O)c2nc3c(n2C)CCN(CCC24CCC(C(=O)O)(CC2)C4)C3)cccc1-c1cccc(NC(=O)c2nc3c(n2C)CCN(C2CCN(C(N)=O)CC2)C3)c1Cl [Example 40, 4-(2-(2-((3′-(5-(1-carbamoylpiperidin-4-yl)-1-methyl-4,5,6,7-tetrahydro-1H-imidazo[4,5-c]pyridine-2-carboxamido)-2′-chloro-2-methyl[1,1′-biphenyl]-3-yl)carbamoyl)-1-methyl-1,4,6,7-tetrahydro-5H-imidazo[4,5-c]pyridin-5-yl)ethyl)bicyclo[2.2.1]heptane-1-carboxylic acid]	10 to 100
10 to 100	≤ 5	≤ 10	Cc1c(NC(=O)c2nc3c(n2C)CCN(CCC24CCC(C(=O)O)(CC2)C4)C3)cccc1-c1cccc(NC(=O)c2nc3c(n2C)CCN(C[C@@H](C)O)C3)c1Cl [Example 41, (R)-4-(2-(2-((2′-chloro-3′-(5-(2-hydroxypropyl)-1-methyl-4,5,6,7-tetrahydro-1H-imidazo[4,5-c]pyridine-2-carboxamido)-2-methyl-[1,1′-biphenyl]-3-yl)carbamoyl)-1-methyl-1,4,6,7-tetrahydro-5H-imidazo[4,5-c]pyridin-5-yl)ethyl)bicyclo[2.2.1]heptane-1-carboxylic Acid]	10 to 100
10 to 100	≤ 5	≤ 10	Cc1c(NC(=O)c2nc3c(n2C)CCN(CCC24CCC(C(=O)O)(CC2)C4)C3)cccc1-c1cccc(NC(=O)c2nc3c(n2C)CCN(C[C@H](C)O)C3)c1Cl [Example 42, (S)-4-(2-(2-((2′-chloro-3′-(5-(2-hydroxypropyl)-1-methyl-4,5,6,7-tetrahydro-1H-imidazo[4,5-c]pyridine-2-carboxamido)-2-methyl-[1,1′-biphenyl]-3-yl)carbamoyl)-1-methyl-1,4,6,7-tetrahydro-5H-imidazo[4,5-c]pyridin-5-yl)ethyl)bicyclo[2.2.1]heptane-1-carboxylic acid]	10 to 100
10 to 100	≤ 5	≤ 10	Cc1c(NC(=O)c2nc3c(n2C)CCN(CCC24CCC(C(=O)O)(CC2)C4)C3)cccc1-c1cccc(NC(=O)c2nc3c(n2C)CCN(CCO)C3)c1Cl [Example 43, 4-(2-(2-((2′-chloro-3′-(5-(2-hydroxyethyl)-1-methyl-4,5,6,7-tetrahydro-1H-imidazo[4,5-c]pyridine-2-carboxamido)-2-methyl-[1,1′-biphenyl]-3-yl)carbamoyl)-1-methyl-1,4,6,7-tetrahydro-5H-imidazo[4,5-c]pyridin-5-yl)ethyl)bicyclo[2.2.1]heptane-1-carboxylic acid]	10 to 100
100 to 500	≤ 5	≤ 10	Cc1c(NC(=O)c2nc3c(n2C)CCN(CCC24CCC(C(=O)O)(CC2)C4)C3)cccc1-c1cccc(NC(=O)c2nc3c(n2C)CCN(CC24CCC(C(=O)O)(CC2)C4)C3)c1Cl [Example 44, 4-((2-((3′-(5-(2-(4-carboxybicyclo[2.2.1]heptan-1-yl)ethyl)-1-methyl-4,5,6,7-tetrahydro-1H-imidazo[4,5-c]pyridine-2-carboxamido)-2-chloro-2′-methyl-[1,1′-biphenyl]-3-yl)carbamoyl)-1-methyl-1,4,6,7-tetrahydro-5H-imidazo[4,5-c]pyridin-5-yl)methyl)bicyclo[2.2.1]heptane-1-carboxylic acid]	10 to 100
100 to 500	5 to 10	≤ 10	Cc1c(NC(=O)c2nc3c(n2C)CCN(CCC24CCC(C(=O)O)(CC2)C4)C3)cccc1-c1cccc(NC(=O)c2nc3c(n2C)CCN(CCc2ccc(C(=O)O)cc2)C3)c1Cl [Example 45, 4-(2-(2-((3′-(5-(4-carboxyphenethyl)-1-methyl-4,5,6,7-tetrahydro-1H-imidazo[4,5-c]pyridine-2-carboxamido)-2′-chloro-2-methyl-[1,1′-biphenyl]-3-yl)carbamoyl)-1-methyl-1,4,6,7-tetrahydro-5H-imidazo[4,5-c]pyridin-5-yl)ethyl)bicyclo[2.2.1]heptane-1-carboxylic acid]	10 to 100
10 to 100	≤ 5	≤ 10	Cn1c(C(=O)Nc2cccc(-c3cccc(NC(=O)c4nc5c(n4C)CCN(CCC46CCC(C(=O)O)(CC4)C6)C5)c3C#N)c2Cl)nc2c1CCN(CCC13CCC(C(=O)O)(CC1)C3)C2 [Example 51, 4,4′-(((((2-chloro-2′-cyano-[1,1′-biphenyl]-3,3′-diyl)bis(azanediyl))bis(carbonyl))bis(1-methyl-1,4,6,7-tetrahydro-5H-imidazo[4,5-c]pyridine-2,5-diyl))bis(ethane-2,1-diyl))bis(bicyclo[2.2.1]heptane-1-carboxylic acid)]	10 to 100
100 to 500	≤ 5	≤ 10	Cc1c(NC(=O)c2nc3c(n2C)CCN(CCC24CCC(C(=O)O)(CC2)C4)C3)cccc1-c1cccc(NC(=O)c2nc3c(n2C)CCN(CCC24CCC(C(=O)O)(CC2)C4)C3)c1C [Example 54, 4,4′-(((((2,2′-dimethyl-[1,1′-biphenyl]-3,3′-diyl)bis(azanediyl))bis(carbonyl))bis(1-methyl-1,4,6,7-tetrahydro-5H-imidazo[4,5-c]pyridine-2,5-diyl))bis(ethane-2,1-diyl))bis(bicyclo[2.2.1]heptane-1-carboxylic acid)]	10 to 100
100 to 500	≤ 5	≤ 10	Cc1c(NC(=O)c2nc3c(n2C)CCN(CCC24CCC(C(=O)O)(CC2)C4)C3)cccc1-c1cccc(NC(=O)c2nc3c(n2C)CCN(C2CCOCC2)C3)c1C [Example 56, 4-(2-(2-((2,2′-dimethyl-3′-(1-methyl-5-(tetrahydro-2H-pyran-4-yl)-4,5,6,7-tetrahydro-1H-imidazo[4,5-c]pyridine-2-carboxamido)-[1,1′-biphenyl]-3-yl)carbamoyl)-1-methyl-1,4,6,7-tetrahydro-5H-imidazo[4,5-c]pyridin-5-yl)ethyl)bicyclo[2.2.1]heptane-1-carboxylic acid]	10 to 100

— patent US10618916B2, “Heterocyclic compounds as immunomodulators” (Incyte Corporation, priority 2018, dated 2020)
